pIC50: −log10 of the molar value.
Legend:
Format in all cases: cell-based
[1] = molecular target: T1, EGFR WT (Homo sapiens, UniProt P00533); test: Activity for inhibiting EGFR (Table A), EGFR WT; details: read-out: EGFR WT, potency code (IC50)
[2] = molecular target: T2, EGFR V3 (Homo sapiens, UniProt P00533, DELINS30-297G); test: Activity for inhibiting EGFR (Table A), EGFR V3 (EGFR-Viii); details: read-out: EGFR V3, potency code (IC50)
T2 construct: expressed in transfected cells; host or cells: BaF3 (murine pro-B), retroviral pMXs-IRES-Blasticidin

[3] = molecular target: T3, EGFR NPH (Homo sapiens, UniProt P00533, DUP771-773); test: Activity for inhibiting EGFR (Table A), EGFR NPH; details: read-out: EGFR NPH, potency code (IC50)
T3 construct: expressed in transfected cells; host or cells: BaF3 (murine pro-B), retroviral pMXs-IRES-Blasticidin

[4] = molecular target: T4, EGFR SVD (Homo sapiens, UniProt P00533, DUP768-770); test: Activity for inhibiting EGFR (Table A), EGFR SVD; details: read-out: EGFR SVD, potency code (IC50)
T4 construct: expressed in transfected cells; host or cells: BaF3 (murine pro-B), retroviral pMXs-IRES-Blasticidin

[5] = molecular target: T5, HER2 WT (Homo sapiens, UniProt P04626); test: Activity for inhibiting HER2 (Table B), HER2 WT
[6] = molecular target: T6, HER2 S310F (Homo sapiens, UniProt P04626, S310F); test: Activity for inhibiting HER2 (Table B), HER2 S310F; details: read-out: HER2 S310F, potency code (IC50)
T6 construct: expressed in transfected cells; host or cells: BaF3 (murine pro-B)
Protocol: (§1) EC50 values were determined with the same application.

[7] = molecular target: T7, HER2 YVMA (Homo sapiens, UniProt P04626, INS775YVMA); test: Activity for inhibiting HER2 (Table B), HER2 YVMA; details: read-out: HER2 YVMA, potency code (IC50)
T7 construct: expressed in transfected cells; host or cells: BaF3 (murine pro-B)
Protocol: as §1

[8] = molecular target: T1, EGFR WT; test: BaF3 cell proliferation assay, EGFR WT (Table A); details: potency code, 3 days, CellTiterGlo, read-out: EGFR WT (Activity for Inhibiting EGFR)
In short: (§2)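 Steps: HEK 293T transfected with pMXs-IRES-Blasticidin kinase vector plus Gag-Pol and VSV-G; virus harvested at 24 and 48 hrs; BaF3 infected twice by centrifugation, Blasticidin-selected, then grown without IL-3. Proliferation EC50 measured.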

[9] = molecular target: T2, EGFR V3; test: BaF3 cell proliferation assay, EGFR V3 (Table A); details: potency code, 3 days, CellTiterGlo, read-out: EGFR V3 (Activity for Inhibiting EGFR)
In short: as §2

[10] = molecular target: T3, EGFR NPH; test: BaF3 cell proliferation assay, EGFR NPH (Table A); details: potency code, 3 days, CellTiterGlo, read-out: EGFR NPH (Activity for Inhibiting EGFR)
Protocol: (§3) Retroviral Production: EGFR mutants were subcloned into pMXs-IRES-Blasticidin (RTV-016, Cell Biolabs, San Diego, Calif.). Retroviral expression vector retrovirus was produced by transient transfection of HEK 293T cells with the retroviral EGFR mutant expression vector pMXs-IRES-Blasticidin (RTV-016, Cell Biolabs), pCMV-Gag-Pol vector and pCMV-VSV-G-Envelope vector. Briefly, HEK 293T/17 cells were plated in 100 mm collagen coated plate (354450, Corning Life Sciences, Tewksbury, Mass.) (4×10^5 per plate) and incubated overnight. The next day, retroviral plasmids (3 μg of EGFR mutant, 1.0 μg of pCMV-Gag-Pol and 0.5 μg pCMV-VSV-G) were mixed in 500 μl of Optimem (31985, Life Technologies). The mixture was incubated at room temperature for 5 min and then added to Optimem containing transfection reagent Lipofectamine (11668, Invitrogen) and incubated for 20 minutes. Mixture was then added dropwise to HEK 293T cells. The next day the medium was replaced with fresh culture medium and retrovirus was harvested @ 24 and 48 hrs.
(§4) Generation of EGFR mutant stable cell lines: BaF3 cells (1.5E5 cells) were infected with 1 ml of viral supernatant supplemented with 8 μg/ml polybrene by centrifuging for 30 min at 1000 rpm. Cells were placed in a 37° C. incubator overnight. Cells were then spun for 5 minutes to pellet the cells. Supernatant was removed and cells re-infected a fresh 1 ml of viral supernatant supplemented with 8 μg/ml polybrene by centrifuging for 30 min at 1000 rpm. Cells were placed in 37° C. incubator overnight. […] After 48 hours cells were selected for retroviral infection in 10 μg/ml Blasticidin for one week. Blasticidin resistant populations were washed twice in phosphate buffered saline before plating in media lacking IL-3 to select for IL-3 independent growth.
as §1

[11] = molecular target: T4, EGFR SVD; test: BaF3 cell proliferation assay, EGFR SVD (Table A); details: potency code, 3 days, CellTiterGlo, read-out: EGFR SVD (Activity for Inhibiting EGFR)
Protocol: as §3, §4, §1

[12] = molecular target: T5, HER2 WT; test: BaF3 cell proliferation assay, HER2 WT (Table B); details: potency code, 3 days, CellTiterGlo, read-out: HER2 WT (Activity for Inhibiting HER2)
[13] = molecular target: T6, HER2 S310F; test: BaF3 cell proliferation assay, HER2 S310F (Table B); details: potency code, 3 days, CellTiterGlo, read-out: HER2 S310F (Activity for Inhibiting HER2)
[14] = molecular target: T7, HER2 YVMA; test: BaF3 cell proliferation assay, HER2 YVMA (Table B); details: potency code, 3 days, CellTiterGlo, read-out: HER2 YVMA (Activity for Inhibiting HER2)
[15] = Table B, read-out: HER2 WT, potency code (IC50)
[16] = text lists of compounds, read-out: IC50 value for inhibiting wild-type HER2

T4 sequence (P00533 with tags, fused parts or gaps DUP768-770): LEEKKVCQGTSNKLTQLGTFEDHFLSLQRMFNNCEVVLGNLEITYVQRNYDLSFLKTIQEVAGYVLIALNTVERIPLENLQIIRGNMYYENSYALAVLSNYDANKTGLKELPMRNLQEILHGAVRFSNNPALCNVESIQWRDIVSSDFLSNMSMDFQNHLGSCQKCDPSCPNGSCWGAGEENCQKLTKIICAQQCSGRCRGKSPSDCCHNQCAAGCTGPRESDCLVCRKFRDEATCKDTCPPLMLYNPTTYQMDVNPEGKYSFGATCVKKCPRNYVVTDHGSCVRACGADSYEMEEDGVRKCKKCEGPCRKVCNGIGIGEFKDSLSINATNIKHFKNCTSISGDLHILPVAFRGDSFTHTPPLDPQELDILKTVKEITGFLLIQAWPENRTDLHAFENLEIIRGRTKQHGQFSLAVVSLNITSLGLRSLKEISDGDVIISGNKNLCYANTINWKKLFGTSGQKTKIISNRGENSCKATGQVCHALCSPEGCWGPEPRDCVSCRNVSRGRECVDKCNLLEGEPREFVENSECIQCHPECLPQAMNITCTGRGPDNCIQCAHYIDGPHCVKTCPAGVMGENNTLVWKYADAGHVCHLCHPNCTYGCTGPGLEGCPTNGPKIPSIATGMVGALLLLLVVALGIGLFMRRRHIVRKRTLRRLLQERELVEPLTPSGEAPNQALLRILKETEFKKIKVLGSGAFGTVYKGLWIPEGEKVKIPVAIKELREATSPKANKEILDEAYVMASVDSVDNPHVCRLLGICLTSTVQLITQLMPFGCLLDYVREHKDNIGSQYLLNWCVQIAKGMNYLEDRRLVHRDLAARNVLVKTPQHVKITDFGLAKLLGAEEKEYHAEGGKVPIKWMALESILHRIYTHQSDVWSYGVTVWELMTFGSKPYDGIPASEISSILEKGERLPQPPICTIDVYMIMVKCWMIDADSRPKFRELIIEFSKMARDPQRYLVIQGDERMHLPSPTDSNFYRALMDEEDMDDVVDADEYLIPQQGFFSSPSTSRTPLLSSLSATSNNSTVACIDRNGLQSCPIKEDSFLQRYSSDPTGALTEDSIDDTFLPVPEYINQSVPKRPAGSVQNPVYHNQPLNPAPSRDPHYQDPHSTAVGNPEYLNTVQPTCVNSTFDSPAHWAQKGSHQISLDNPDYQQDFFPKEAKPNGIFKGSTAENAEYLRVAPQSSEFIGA
T5 sequence (P04626 23-1255): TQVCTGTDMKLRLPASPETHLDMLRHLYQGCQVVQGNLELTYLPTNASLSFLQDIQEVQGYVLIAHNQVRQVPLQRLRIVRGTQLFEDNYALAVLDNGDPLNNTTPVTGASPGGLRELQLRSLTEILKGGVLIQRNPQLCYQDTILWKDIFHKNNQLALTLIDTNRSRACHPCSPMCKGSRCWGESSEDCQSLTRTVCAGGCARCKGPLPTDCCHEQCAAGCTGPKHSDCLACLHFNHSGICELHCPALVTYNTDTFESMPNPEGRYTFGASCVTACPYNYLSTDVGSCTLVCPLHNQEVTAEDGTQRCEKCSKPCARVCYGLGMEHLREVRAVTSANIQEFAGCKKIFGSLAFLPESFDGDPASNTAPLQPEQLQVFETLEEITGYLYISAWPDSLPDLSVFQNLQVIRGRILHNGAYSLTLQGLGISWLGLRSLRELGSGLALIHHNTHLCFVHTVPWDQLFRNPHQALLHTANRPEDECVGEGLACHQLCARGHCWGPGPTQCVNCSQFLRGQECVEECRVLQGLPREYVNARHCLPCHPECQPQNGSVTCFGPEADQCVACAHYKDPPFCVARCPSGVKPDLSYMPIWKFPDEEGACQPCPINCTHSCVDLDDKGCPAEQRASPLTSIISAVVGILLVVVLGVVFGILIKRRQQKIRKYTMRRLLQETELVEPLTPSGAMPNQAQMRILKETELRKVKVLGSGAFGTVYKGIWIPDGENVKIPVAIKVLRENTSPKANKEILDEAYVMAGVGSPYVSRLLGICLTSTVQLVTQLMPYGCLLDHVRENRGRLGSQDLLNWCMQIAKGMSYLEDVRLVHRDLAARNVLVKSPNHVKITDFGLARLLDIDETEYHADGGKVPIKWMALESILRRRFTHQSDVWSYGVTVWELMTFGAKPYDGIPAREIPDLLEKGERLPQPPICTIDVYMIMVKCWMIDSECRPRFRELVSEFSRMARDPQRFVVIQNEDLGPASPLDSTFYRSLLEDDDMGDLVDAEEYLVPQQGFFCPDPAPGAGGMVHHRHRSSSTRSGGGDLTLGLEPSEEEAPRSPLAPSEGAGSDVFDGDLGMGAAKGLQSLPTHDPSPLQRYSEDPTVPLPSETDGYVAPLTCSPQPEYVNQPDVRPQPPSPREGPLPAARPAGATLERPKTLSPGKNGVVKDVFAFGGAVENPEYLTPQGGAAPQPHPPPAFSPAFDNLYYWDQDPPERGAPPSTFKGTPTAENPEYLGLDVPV
T7 sequence (P04626 with tags, fused parts or gaps INS775YVMA): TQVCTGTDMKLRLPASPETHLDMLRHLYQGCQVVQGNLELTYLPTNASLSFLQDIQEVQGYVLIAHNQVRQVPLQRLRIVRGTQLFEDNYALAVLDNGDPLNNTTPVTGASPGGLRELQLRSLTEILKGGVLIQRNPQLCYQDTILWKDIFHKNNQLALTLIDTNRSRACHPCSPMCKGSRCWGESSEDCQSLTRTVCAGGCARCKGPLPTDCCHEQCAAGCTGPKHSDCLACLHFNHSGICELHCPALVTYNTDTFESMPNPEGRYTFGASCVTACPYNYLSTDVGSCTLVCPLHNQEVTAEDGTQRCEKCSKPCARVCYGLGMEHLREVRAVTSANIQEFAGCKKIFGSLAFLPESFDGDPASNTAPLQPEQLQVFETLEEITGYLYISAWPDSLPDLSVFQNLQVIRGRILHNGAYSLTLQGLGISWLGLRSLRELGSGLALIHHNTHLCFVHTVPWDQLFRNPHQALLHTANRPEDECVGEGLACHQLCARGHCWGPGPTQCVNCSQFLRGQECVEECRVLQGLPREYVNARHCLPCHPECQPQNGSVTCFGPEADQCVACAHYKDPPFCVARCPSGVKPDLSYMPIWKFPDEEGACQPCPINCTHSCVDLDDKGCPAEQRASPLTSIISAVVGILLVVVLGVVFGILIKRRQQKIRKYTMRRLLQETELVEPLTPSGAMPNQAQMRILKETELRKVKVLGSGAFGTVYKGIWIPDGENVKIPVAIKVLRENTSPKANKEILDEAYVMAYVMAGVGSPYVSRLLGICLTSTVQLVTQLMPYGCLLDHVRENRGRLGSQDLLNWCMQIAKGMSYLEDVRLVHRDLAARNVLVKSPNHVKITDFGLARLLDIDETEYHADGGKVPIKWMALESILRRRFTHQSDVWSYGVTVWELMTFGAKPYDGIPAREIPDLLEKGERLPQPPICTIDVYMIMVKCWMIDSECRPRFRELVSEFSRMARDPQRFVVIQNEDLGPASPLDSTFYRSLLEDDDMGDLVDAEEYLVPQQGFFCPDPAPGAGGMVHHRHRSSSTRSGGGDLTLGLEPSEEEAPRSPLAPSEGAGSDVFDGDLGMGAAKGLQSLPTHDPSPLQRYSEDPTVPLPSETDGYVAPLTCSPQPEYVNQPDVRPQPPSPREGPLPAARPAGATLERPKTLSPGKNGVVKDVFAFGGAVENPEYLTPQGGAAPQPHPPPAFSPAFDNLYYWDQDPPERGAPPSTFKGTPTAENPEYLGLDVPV
T3 sequence (P00533 with tags, fused parts or gaps DUP771-773): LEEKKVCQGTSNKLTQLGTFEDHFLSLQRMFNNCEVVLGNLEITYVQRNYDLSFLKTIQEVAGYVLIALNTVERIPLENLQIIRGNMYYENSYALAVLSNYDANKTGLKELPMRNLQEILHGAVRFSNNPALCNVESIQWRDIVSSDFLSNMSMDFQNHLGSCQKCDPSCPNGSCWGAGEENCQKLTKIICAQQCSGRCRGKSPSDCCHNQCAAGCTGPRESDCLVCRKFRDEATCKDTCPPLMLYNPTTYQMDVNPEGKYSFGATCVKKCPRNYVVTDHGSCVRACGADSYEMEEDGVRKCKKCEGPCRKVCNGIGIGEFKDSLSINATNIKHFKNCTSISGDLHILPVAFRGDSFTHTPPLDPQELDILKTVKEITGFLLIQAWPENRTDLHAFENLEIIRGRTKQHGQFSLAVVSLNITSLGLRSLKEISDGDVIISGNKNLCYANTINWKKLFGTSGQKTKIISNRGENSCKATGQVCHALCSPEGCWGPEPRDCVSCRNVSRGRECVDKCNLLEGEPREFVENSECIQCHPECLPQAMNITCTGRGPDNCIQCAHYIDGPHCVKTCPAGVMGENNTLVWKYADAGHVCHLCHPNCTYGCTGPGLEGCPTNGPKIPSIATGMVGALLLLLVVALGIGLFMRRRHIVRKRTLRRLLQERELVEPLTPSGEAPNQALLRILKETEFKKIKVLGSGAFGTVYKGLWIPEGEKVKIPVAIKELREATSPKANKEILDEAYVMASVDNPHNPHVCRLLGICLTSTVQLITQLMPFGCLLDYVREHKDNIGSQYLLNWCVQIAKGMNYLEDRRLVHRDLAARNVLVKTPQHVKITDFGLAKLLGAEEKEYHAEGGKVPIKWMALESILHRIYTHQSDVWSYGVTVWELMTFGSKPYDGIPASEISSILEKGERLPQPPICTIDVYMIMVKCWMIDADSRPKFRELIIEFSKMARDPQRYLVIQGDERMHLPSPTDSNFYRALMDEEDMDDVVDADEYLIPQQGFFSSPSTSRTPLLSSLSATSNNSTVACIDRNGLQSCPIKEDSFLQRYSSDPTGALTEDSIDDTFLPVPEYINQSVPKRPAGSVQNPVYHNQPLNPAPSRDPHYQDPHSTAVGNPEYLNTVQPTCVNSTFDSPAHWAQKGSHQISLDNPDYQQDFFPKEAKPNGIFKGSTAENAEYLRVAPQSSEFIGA

Row | SMILES | pIC50 [1] | pIC50 [2] | pIC50 [3] | pIC50 [4] | pIC50 [5, 15] | pIC50 [5, 16] | pIC50 [6] | pIC50 [7] | pIC50 [8] | pIC50 [9] | pIC50 [10] | pIC50 [11] | pIC50 [12] | pIC50 [13] | pIC50 [14]
1 | C=CC(=O)Nc1cc2c(Nc3ccc(OCc4ccccn4)c(Cl)c3)ncnc2cc1OCCN(C)C1CCOC1 (stereo not drawn) [compound 41] | 6.00 to 6.30 | 7.30 to 7.52 | 7.00 to 7.30 | 7.30 to 7.52 | 8.00 to 8.30 | ≥ 8.00 | 7.52 to 7.70 | 7.00 to 7.30 | 6.00 to 6.30 | 7.30 to 7.52 | 7.00 to 7.30 | 7.30 to 7.52 | 8.00 to 8.30 | 7.52 to 7.70 | 7.00 to 7.30
2 | C=CC(=O)Nc1cc2c(Nc3ccc(OCc4ccccn4)c(Cl)c3)ncnc2cc1OCCN1CC2(CCO2)C1 [compound 52] | 6.00 to 6.30 | 7.52 to 7.70 | 7.00 to 7.30 | 7.00 to 7.30 | 8.00 to 8.30 | ≥ 8.00 | 7.52 to 7.70 | 6.70 to 7.00 | 6.00 to 6.30 | 7.52 to 7.70 | 7.00 to 7.30 | 7.00 to 7.30 | 8.00 to 8.30 | 7.52 to 7.70 | 6.70 to 7.00
3 | C=CC(=O)Nc1cc2c(Nc3cc(Cl)c(OCc4ccccn4)cc3F)ncnc2cc1OCCN1CCOCC1 [compound 57] | 6.00 to 6.30 | 7.70 to 8.00 | 7.00 to 7.30 | 7.30 to 7.52 | 8.00 to 8.30 | ≥ 8.00 | 7.70 to 8.00 | 7.00 to 7.30 | 6.00 to 6.30 | 7.70 to 8.00 | 7.00 to 7.30 | 7.30 to 7.52 | 8.00 to 8.30 | 7.70 to 8.00 | 7.00 to 7.30
4 | C=CC(=O)Nc1cc2c(Nc3ccc(OCc4ccccn4)c(Cl)c3)ncnc2cc1OCCN1CC2COCC2C1 (stereo not drawn) [compound 51] | 6.00 to 6.30 | 7.52 to 7.70 | 7.00 to 7.30 | 7.30 to 7.52 | 8.00 to 8.30 | ≥ 8.00 | 7.70 to 8.00 | 7.00 to 7.30 | 6.00 to 6.30 | 7.52 to 7.70 | 7.00 to 7.30 | 7.30 to 7.52 | 8.00 to 8.30 | 7.70 to 8.00 | 7.00 to 7.30
5 | C=CC(=O)Nc1cc2c(Nc3ccc(OCc4ccccn4)c(Cl)c3)ncnc2cc1OCCN1CC(OC)C1 [compound 35] | 6.30 to 6.52 | 7.52 to 7.70 | 7.00 to 7.30 | 7.52 to 7.70 | > 8.30 | ≥ 8.30 | 7.70 to 8.00 | 7.30 to 7.52 | 6.30 to 6.52 | 7.52 to 7.70 | 7.00 to 7.30 | 7.52 to 7.70 | > 8.30 | 7.70 to 8.00 | 7.30 to 7.52
6 | C=CC(=O)Nc1cc2c(Nc3ccc(OCc4ccccn4)c(Cl)c3)ncnc2cc1OC1CN(C)C1 [compound 25] | 6.00 to 6.30 | 6.52 to 6.70 | 7.52 to 7.70 | 7.30 to 7.52 | 7.70 to 8.00 | ≥ 7.70 | 7.70 to 8.00 | 7.00 to 7.30 | 6.00 to 6.30 | 6.52 to 6.70 | 7.52 to 7.70 | 7.30 to 7.52 | 7.70 to 8.00 | 7.70 to 8.00 | 7.00 to 7.30
7 | C=CC(=O)Nc1cc2c(Nc3ccc(OCc4ccccn4)c(Cl)c3)ncnc2cc1N1CCN(C)CC1 [compound 42] | 6.00 to 6.30 | 7.00 to 7.30 | < 6.00 | 6.00 to 6.30 | 7.30 to 7.52 | ≥ 7.30 | 7.00 to 7.30 | 6.00 to 6.30 | 6.00 to 6.30 | 7.00 to 7.30 | < 6.00 | 6.00 to 6.30 | 7.30 to 7.52 | 7.00 to 7.30 | 6.00 to 6.30

Second part, the compound after the results:

Row | pIC50 [1] | pIC50 [2] | pIC50 [3] | pIC50 [4] | pIC50 [5, 15] | pIC50 [5, 16] | pIC50 [6] | pIC50 [7] | pIC50 [8] | pIC50 [9] | pIC50 [10] | pIC50 [11] | pIC50 [12] | pIC50 [13] | pIC50 [14] | SMILES
8 | 6.30 to 6.52 | 7.52 to 7.70 | 6.30 to 6.52 | 6.30 to 6.52 | 7.52 to 7.70 | ≥ 7.30 | 7.00 to 7.30 | 6.52 to 6.70 | 6.30 to 6.52 | 7.52 to 7.70 | 6.30 to 6.52 | 6.30 to 6.52 | 7.52 to 7.70 | 7.00 to 7.30 | 6.52 to 6.70 | C=CC(=O)Nc1cc2c(Nc3ccc(OCc4ccccn4)cc3F)ncnc2cc1OCCN1CCOCC1 [compound 56]
9 | 6.30 to 6.52 | 7.30 to 7.52 | 6.00 to 6.30 | 6.00 to 6.30 | 7.70 to 8.00 | ≥ 7.70 | 7.30 to 7.52 | 6.00 to 6.30 | 6.30 to 6.52 | 7.30 to 7.52 | 6.00 to 6.30 | 6.00 to 6.30 | 7.70 to 8.00 | 7.30 to 7.52 | 6.00 to 6.30 | C=CC(=O)Nc1cc2c(Nc3ccc(OCc4ccccn4)c(Cl)c3)ncnc2cc1N1CC2CN(C)CC2C1 (stereo not drawn) [compound 47]
10 | 6.52 to 6.70 | 7.70 to 8.00 | 7.00 to 7.30 | 7.30 to 7.52 | 8.00 to 8.30 | ≥ 8.00 | 7.70 to 8.00 | 7.30 to 7.52 | 6.52 to 6.70 | 7.70 to 8.00 | 7.00 to 7.30 | 7.30 to 7.52 | 8.00 to 8.30 | 7.70 to 8.00 | 7.30 to 7.52 | C=CC(=O)Nc1cc2c(Nc3ccc(OCc4ccccn4)c(Cl)c3)ncnc2cc1OCCN1CCCC1 [compound 28]
11 | 7.00 to 7.30 | 7.52 to 7.70 | 7.52 to 7.70 | 7.70 to 8.00 | > 8.30 | ≥ 8.30 | 8.00 to 8.30 | 7.30 to 7.52 | 7.00 to 7.30 | 7.52 to 7.70 | 7.52 to 7.70 | 7.70 to 8.00 | > 8.30 | 8.00 to 8.30 | 7.30 to 7.52 | C=CC(=O)Nc1cc2c(Nc3ccc(OCc4ccccn4)c(Cl)c3)ncnc2cc1OCCCN1CCCC1 [compound 22]
12 | 6.52 to 6.70 | 7.70 to 8.00 | 7.52 to 7.70 | 7.70 to 8.00 | > 8.30 | ≥ 8.30 | 8.00 to 8.30 | 7.30 to 7.52 | 6.52 to 6.70 | 7.70 to 8.00 | 7.52 to 7.70 | 7.70 to 8.00 | > 8.30 | 8.00 to 8.30 | 7.30 to 7.52 | C=CC(=O)Nc1cc2c(Nc3ccc(OCc4ccccn4)c(Cl)c3)ncnc2cc1O[C@@H]1CCN(C)C1 [compound 17]
13 | 6.52 to 6.70 | 7.70 to 8.00 | 7.70 to 8.00 | 7.70 to 8.00 | > 8.30 | ≥ 8.00 | 7.70 to 8.00 | 7.52 to 7.70 | 6.52 to 6.70 | 7.70 to 8.00 | 7.70 to 8.00 | 7.70 to 8.00 | > 8.30 | 7.70 to 8.00 | 7.52 to 7.70 | C=CC(=O)Nc1cc2c(Nc3ccc(OCc4ccccn4)c(Cl)c3)ncnc2cc1OCCN1CCN(C)CC1 [compound 40]
